# Measured values published in paper PMC8159961, “Exploring protein hotspots by optimized fragment pharmacophores” (Nature Communications, 2021).
# pKi: −log10 of the molar value. “And” between values parts separate entries of the source, which are not always exact repeats. Equal entries are not always repeated. Where two headings read alike, the source gives them in different places.
# Experiments:
# human thrombin = molecular target: T1, human thrombin (Homo sapiens, UniProt P00734); assay: Protease inhibitory assay, chromogenic substrate S-2238; type: biochemical; conditions: Thrombin primary screening, substrate 40 µM, cmpd conc 500 µM; for vinit: replicate values
# T1 construct: human thrombin; purchased Sigma-Aldrich
# bovine factor Xa = molecular target: T2, bovine factor Xa (Bos taurus, UniProt P00743); assay: Protease inhibitory assay, chromogenic substrate S-2222; type: biochemical; conditions: cmpd conc 200 µM; for vinit: replicate values; for pKi: FactorXa, one of two values averaged in Supplementary Data 1, read-out: Ki
# T2 construct: bovine factor Xa, Chromogenix, 2 nkat/mL; purchased Chromogenix
# [1] = FactorXa primary screening, substrate 100 µM
# [2] = FactorXa Ki determination, substrate 100 µM
# [3] = FactorXa Ki determination, substrate 200 µM
# T2 sequence (P00743 234-492 limits assumed): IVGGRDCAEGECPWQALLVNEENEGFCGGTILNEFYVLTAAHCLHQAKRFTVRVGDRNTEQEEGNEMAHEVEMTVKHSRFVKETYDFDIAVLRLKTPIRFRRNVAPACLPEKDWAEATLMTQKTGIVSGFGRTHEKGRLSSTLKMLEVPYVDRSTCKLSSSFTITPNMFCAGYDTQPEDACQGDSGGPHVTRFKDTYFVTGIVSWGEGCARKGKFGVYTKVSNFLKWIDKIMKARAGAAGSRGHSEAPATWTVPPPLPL
# T2 sequence (P00743 41-180 partner limits assumed): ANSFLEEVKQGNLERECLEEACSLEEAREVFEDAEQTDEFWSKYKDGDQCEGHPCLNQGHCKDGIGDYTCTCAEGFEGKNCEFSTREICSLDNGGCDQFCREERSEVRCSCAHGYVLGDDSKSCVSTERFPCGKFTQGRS
smiles,measurement,setting,value
O=C1CCC(=O)N(c2ccccc2)N1 [SX-H7],V0 / Vi,human thrombin,1.06
same,vinit,human thrombin,30 and 29.357
same,V0 / Vi,bovine factor Xa; [1],0.97
same,vinit,bovine factor Xa; [1],16.4
O=C1CC(CSc2ccc(Cl)cc2)=NN1 [SX-H8],V0 / Vi,human thrombin,0.97
same,vinit,human thrombin,33.5 and 31.286
same,V0 / Vi,bovine factor Xa; [1],0.99
same,vinit,bovine factor Xa; [1],15.686 and 16.6
O=C(c1ccccc1)N1CCC(CO)CC1 [SX-H9],V0 / Vi,human thrombin,1.03
same,vinit,human thrombin,31.714 and 29.571
same,V0 / Vi,bovine factor Xa; [1],0.93
same,vinit,bovine factor Xa; [1],17.7 and 16.5
O=C1CSC(Nc2ccc(F)cc2)=N1 [SX-H10],V0 / Vi,human thrombin,1.13
same,vinit,human thrombin,26.786 and 28.857
same,V0 / Vi,bovine factor Xa; [1],1.14
same,vinit,bovine factor Xa; [1],14.6 and 13.3
Cc1ccc(CCNc2ccccc2)cn1 [SX-H11],V0 / Vi,human thrombin,1.00
same,vinit,human thrombin,31.714 and 31.42
same,V0 / Vi,bovine factor Xa; [1],0.99
same,vinit,bovine factor Xa; [1],15.4 and 17
O=C1NC(=O)/C(=C\c2cccs2)N1 [SX-H12],V0 / Vi,human thrombin,1.13
same,vinit,human thrombin,29.929 and 26.071
same,"vinit, avrg.",bovine factor Xa; [2],13.665
same,vinit,bovine factor Xa; [2],13.174 and 12.668 and 15.15
same,V0 / Vi,bovine factor Xa; [3],1.24
same,"vinit, avrg.",bovine factor Xa; [3],27.296
same,vinit,bovine factor Xa; [3],25.633 and 28.073 and 28.18
same,V0 / Vi,bovine factor Xa; [1],1.27
same,vinit,bovine factor Xa; [1],12.7 and 12.5
same,pKi,bovine factor Xa; substrate 100 µM,3.26
same,pKi,bovine factor Xa; substrate 200 µM,3.42
